Results taken from the kinase profiling compilation of Christmann-Franck et al. (2016).

Assays:
Assay in all cases: KINOMEscan competition binding
Details in all cases: compound 10.0 µM
[1] = biological target: RPS6KA2 KD2 (human) (UniProt Q15349)
[2] = biological target: STK4 (human) (UniProt Q13043)
[3] = biological target: PRKX (human) (UniProt P51817)
[4] = biological target: PRKG2 (human) (UniProt Q13237)
[5] = biological target: DAPK3 (human) (UniProt O43293)
[6] = biological target: RPS6KA6 KD1 (human) (UniProt Q9UK32)
[7] = biological target: FGFR2 (human) (UniProt P21802)
[8] = biological target: EPHA3 (human) (UniProt P29320)
[9] = biological target: SIK1 (human) (UniProt P57059)
[10] = biological target: RIOK1 (human) (UniProt Q9BRS2)
[11] = biological target: RPS6KA2 KD1 (human) (UniProt Q15349)
RPS6KA2 KD1 (human), sequence (Q15349 whole entry, looked up): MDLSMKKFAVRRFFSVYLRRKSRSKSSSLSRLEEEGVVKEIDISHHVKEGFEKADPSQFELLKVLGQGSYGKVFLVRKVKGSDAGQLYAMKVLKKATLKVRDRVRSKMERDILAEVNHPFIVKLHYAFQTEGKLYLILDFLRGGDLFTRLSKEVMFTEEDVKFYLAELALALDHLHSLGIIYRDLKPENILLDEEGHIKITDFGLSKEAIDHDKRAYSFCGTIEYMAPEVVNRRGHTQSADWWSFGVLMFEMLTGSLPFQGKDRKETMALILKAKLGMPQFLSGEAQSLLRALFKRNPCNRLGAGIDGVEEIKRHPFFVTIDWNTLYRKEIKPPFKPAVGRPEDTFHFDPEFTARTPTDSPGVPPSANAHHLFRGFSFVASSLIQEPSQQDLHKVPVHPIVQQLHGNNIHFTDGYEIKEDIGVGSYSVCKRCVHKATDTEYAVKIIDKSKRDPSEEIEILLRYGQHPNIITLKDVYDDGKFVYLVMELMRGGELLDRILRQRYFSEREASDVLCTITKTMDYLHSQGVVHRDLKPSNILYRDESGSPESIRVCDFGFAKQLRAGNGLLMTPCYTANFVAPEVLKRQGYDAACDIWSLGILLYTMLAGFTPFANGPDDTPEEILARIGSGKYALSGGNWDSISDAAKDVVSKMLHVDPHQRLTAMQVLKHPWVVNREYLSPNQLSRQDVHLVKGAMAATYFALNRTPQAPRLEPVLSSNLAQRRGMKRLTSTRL

[12] = biological target: FLT3 (human) (UniProt P36888)
[13] = biological target: AKT1 (human) (UniProt P31749)
AKT1 (human), sequence (P31749 whole entry, looked up): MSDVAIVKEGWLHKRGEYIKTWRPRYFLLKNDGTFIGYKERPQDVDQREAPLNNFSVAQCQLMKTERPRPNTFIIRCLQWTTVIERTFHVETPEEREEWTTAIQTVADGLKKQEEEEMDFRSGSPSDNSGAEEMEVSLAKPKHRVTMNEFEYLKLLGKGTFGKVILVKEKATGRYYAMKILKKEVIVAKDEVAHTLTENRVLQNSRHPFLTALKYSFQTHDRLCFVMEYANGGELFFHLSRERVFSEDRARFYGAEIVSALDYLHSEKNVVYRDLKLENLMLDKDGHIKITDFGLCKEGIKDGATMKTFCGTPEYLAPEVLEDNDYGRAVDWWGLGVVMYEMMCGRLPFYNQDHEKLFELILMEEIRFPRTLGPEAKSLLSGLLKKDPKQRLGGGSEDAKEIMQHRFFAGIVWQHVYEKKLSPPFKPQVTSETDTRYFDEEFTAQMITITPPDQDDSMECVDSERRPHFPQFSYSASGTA

[14] = biological target: CRK2 (P.falciparum) (UniProt P61075)
[15] = biological target: CSF1R (human) (UniProt P07333)
[16] = biological target: MYLK2 (human) (UniProt Q9H1R3)
[17] = system: ABL1 (human), P00519 [Y253F]
[18] = biological target: MATK (human) (UniProt P42679)
MATK (human), sequence (P42679 whole entry, looked up): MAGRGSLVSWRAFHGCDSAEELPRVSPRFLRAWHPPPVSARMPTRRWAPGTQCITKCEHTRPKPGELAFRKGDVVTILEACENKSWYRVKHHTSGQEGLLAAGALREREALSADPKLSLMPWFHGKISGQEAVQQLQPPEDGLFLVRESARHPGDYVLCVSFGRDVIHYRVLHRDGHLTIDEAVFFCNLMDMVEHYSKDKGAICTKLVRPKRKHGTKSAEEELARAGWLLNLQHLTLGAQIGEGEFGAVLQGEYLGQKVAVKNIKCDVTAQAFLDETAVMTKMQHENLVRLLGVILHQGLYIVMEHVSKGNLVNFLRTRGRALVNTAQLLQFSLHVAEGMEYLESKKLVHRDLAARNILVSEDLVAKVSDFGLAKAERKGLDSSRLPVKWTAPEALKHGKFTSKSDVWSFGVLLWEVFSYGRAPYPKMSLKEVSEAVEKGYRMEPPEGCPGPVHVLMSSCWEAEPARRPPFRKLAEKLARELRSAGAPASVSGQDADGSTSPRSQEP

[19] = biological target: VRK2 (human) (UniProt Q86Y07)
[20] = biological target: MAPKAPK2 (human) (UniProt P49137)
[21] = biological target: TYK2 JH1 catalytic (human) (UniProt P29597)
[22] = biological target: PIP4K2C (human) (UniProt Q8TBX8)
[23] = biological target: NEK1 (human) (UniProt Q96PY6)
NEK1 (human), sequence (Q96PY6 whole entry, looked up): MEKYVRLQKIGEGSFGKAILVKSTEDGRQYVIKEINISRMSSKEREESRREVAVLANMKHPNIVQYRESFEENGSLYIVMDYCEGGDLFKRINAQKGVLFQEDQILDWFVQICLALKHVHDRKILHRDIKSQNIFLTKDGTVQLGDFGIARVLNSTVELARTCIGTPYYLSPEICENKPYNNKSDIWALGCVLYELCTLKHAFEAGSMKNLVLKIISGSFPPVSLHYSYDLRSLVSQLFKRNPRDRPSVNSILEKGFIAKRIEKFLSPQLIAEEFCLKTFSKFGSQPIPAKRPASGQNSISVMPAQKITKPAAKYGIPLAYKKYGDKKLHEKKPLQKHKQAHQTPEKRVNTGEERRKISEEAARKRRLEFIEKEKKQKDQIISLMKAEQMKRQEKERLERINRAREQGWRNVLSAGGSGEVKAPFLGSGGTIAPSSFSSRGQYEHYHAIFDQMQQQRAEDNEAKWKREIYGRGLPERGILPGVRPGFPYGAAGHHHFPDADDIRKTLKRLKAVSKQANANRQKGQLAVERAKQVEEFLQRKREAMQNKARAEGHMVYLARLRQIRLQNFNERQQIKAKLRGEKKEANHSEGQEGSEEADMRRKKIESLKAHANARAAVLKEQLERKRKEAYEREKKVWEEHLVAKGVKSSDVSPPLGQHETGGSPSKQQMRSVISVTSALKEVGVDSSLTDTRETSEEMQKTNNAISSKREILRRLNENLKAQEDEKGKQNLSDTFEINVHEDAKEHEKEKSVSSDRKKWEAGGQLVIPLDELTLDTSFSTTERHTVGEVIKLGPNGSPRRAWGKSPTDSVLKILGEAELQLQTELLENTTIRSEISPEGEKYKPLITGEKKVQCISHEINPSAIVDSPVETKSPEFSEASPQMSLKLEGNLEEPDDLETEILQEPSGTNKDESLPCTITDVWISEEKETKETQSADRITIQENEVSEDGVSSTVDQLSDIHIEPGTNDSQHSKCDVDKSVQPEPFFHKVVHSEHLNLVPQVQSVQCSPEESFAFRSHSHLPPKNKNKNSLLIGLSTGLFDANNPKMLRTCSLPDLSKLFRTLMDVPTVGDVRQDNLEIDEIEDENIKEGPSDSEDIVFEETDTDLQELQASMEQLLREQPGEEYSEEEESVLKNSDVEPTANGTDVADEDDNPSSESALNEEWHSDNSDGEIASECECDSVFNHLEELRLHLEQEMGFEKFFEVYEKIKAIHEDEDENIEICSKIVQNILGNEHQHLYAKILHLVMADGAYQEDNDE

[24] = biological target: MAPK10 (human) (UniProt P53779)
MAPK10 (human), sequence (P53779 whole entry, looked up): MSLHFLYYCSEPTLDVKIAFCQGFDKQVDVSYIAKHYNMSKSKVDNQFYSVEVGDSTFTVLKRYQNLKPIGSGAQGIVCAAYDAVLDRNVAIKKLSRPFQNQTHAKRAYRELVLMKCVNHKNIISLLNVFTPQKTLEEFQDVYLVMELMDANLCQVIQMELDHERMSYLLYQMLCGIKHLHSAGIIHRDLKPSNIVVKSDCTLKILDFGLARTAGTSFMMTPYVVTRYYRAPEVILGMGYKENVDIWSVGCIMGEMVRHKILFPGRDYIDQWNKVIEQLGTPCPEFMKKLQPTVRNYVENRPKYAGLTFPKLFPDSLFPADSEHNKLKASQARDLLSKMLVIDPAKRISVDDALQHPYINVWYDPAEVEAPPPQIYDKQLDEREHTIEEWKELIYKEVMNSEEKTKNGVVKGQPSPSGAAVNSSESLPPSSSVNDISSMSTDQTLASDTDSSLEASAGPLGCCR

[25] = biological target: PIK3CB (human) (UniProt P42338)
[26] = biological target: RIPK1 (human) (UniProt Q13546)
[27] = biological target: MELK (human) (UniProt Q14680)
[28] = biological target: CDKL5 (human) (UniProt O76039)
[29] = biological target: STK25 (human) (UniProt O00506)
[30] = biological target: PKN3 (M.tuberculosis) (UniProt Q6P5Z2)
[31] = biological target: GSK3A (human) (UniProt P49840)
[32] = biological target: GSK3B (human) (UniProt P49841)
[33] = biological target: MARK1 (human) (UniProt Q9P0L2)
[34] = biological target: RIPK4 (human) (UniProt P57078)
[35] = system: EGFR (human), P00533 [747-751 del / S ins]
EGFR (human), P00533 [747-751 del / S ins], sequence (P00533 whole entry, looked up, stated change not applied): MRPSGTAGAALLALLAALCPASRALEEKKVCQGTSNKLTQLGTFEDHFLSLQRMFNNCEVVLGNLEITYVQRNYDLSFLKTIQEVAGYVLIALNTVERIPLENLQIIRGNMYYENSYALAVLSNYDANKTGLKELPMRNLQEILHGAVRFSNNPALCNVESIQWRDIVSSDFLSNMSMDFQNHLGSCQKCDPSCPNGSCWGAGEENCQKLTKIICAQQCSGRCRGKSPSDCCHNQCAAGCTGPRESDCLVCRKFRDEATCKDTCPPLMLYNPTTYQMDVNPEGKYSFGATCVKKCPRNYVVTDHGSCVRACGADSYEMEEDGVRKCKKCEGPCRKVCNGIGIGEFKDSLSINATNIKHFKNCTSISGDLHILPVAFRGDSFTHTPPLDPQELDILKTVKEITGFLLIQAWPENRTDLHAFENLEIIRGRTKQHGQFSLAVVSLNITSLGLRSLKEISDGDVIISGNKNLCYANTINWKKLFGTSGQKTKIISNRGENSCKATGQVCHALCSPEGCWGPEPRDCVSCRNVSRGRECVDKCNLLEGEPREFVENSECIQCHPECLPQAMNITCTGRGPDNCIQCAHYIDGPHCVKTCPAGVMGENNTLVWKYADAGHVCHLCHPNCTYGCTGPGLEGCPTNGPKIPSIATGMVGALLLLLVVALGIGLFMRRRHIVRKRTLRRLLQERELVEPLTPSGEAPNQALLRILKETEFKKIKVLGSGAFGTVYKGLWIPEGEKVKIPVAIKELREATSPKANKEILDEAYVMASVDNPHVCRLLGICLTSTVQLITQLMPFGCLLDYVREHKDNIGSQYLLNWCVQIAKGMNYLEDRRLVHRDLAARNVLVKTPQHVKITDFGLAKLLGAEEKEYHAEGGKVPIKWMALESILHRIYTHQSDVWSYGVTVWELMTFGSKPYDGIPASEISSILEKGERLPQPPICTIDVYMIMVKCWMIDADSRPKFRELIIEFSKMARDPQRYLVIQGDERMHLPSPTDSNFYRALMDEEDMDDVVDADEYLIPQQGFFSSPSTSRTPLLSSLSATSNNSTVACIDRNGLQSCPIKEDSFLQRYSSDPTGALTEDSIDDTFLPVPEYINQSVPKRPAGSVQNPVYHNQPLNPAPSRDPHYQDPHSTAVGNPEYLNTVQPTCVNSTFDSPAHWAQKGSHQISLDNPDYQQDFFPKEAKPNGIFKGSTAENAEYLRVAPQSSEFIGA

[36] = biological target: NEK7 (human) (UniProt Q8TDX7)
[37] = biological target: MAP3K10 (human) (UniProt Q02779)
[38] = biological target: PTK6 (human) (UniProt Q13882)
[39] = biological target: SRPK2 (human) (UniProt P78362)
[40] = biological target: STK32C (human) (UniProt Q86UX6)

PRKX (human), sequence (P51817 whole entry, looked up): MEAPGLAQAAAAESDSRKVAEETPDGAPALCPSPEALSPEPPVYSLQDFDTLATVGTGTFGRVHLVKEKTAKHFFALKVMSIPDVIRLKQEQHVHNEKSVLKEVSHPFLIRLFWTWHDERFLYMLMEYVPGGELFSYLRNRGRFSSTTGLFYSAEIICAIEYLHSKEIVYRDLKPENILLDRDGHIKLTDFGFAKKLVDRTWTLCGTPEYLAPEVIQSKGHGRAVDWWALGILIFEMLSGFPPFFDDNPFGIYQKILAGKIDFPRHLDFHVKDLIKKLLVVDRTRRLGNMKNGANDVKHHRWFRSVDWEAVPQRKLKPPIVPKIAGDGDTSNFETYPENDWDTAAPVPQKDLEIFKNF
RPS6KA2 KD2 (human), sequence (Q15349 whole entry, looked up): as the sequence (Q15349 whole entry, looked up) above

Row | Structure (SMILES) | kinase still bound, per cent of control [1] [%] | kinase still bound, per cent of control [2] [%] | kinase still bound, per cent of control [3] [%] | kinase still bound, per cent of control [4] [%] | kinase still bound, per cent of control [5] [%] | kinase still bound, per cent of control [6] [%] | kinase still bound, per cent of control [7] [%] | kinase still bound, per cent of control [8] [%] | kinase still bound, per cent of control [9] [%] | kinase still bound, per cent of control [10] [%] | kinase still bound, per cent of control [11] [%] | kinase still bound, per cent of control [12] [%] | kinase still bound, per cent of control [13] [%] | kinase still bound, per cent of control [14] [%] | kinase still bound, per cent of control [15] [%] | kinase still bound, per cent of control [16] [%] | kinase still bound, per cent of control [17] [%] | kinase still bound, per cent of control [18] [%] | kinase still bound, per cent of control [19] [%] | kinase still bound, per cent of control [20] [%] | also measured
1 | CN(C)C/C=C/C(=O)Nc1ccc(C(=O)Nc2cccc(Nc3nccc(-c4cccnc4)n3)c2)cc1 | 100 | 100 | 100 | 76 | 62 | 51 | 86 | 73 | 100 | 10 | 83 | 36 | 100 | 100 | 100 | 53 | 40 | 91 | 90 | 100 | kinase still bound, per cent of control [21]: 15%; kinase still bound, per cent of control [22]: 0.8%; kinase still bound, per cent of control [23]: 63%; kinase still bound, per cent of control [24]: 1.3%; kinase still bound, per cent of control [25]: 100%; kinase still bound, per cent of control [26]: 34%; kinase still bound, per cent of control [27]: 58%; kinase still bound, per cent of control [28]: 60%; kinase still bound, per cent of control [29]: 83%; kinase still bound, per cent of control [30]: 84%; kinase still bound, per cent of control [31]: 26%; kinase still bound, per cent of control [32]: 67%; kinase still bound, per cent of control [33]: 70%; kinase still bound, per cent of control [34]: 33%; kinase still bound, per cent of control [35]: 87%; kinase still bound, per cent of control [36]: 9.8%; kinase still bound, per cent of control [37]: 94%; kinase still bound, per cent of control [38]: 100%; kinase still bound, per cent of control [39]: 100%; kinase still bound, per cent of control [40]: 100%
2 | C=CC(=O)Nc1cc(-n2c(=O)ccc3cnc4ccc(-c5cn[nH]c5)cc4c32)ccc1C | 92 | 83 | 100 | 78 | 61 | 74 | 94 | 100 | 77 | 53 | 72 | 6.2 | 89 | 100 | 90 | 89 | 71 | 100 | 88 | 100 | kinase still bound, per cent of control [21]: 29%; kinase still bound, per cent of control [22]: 2.7%; kinase still bound, per cent of control [23]: 93%; kinase still bound, per cent of control [24]: 1.8%; kinase still bound, per cent of control [25]: 62%; kinase still bound, per cent of control [26]: 100%; kinase still bound, per cent of control [27]: 43%; kinase still bound, per cent of control [28]: 3.3%; kinase still bound, per cent of control [29]: 70%; kinase still bound, per cent of control [30]: 12%; kinase still bound, per cent of control [31]: 13%; kinase still bound, per cent of control [32]: 84%; kinase still bound, per cent of control [33]: 78%; kinase still bound, per cent of control [34]: 67%; kinase still bound, per cent of control [35]: 63%; kinase still bound, per cent of control [36]: 100%; kinase still bound, per cent of control [37]: 100%; kinase still bound, per cent of control [38]: 100%; kinase still bound, per cent of control [39]: 96%; kinase still bound, per cent of control [40]: 100%
3 | COc1cc(C(=O)N2CCC(N3CCN(C)CC3)CC2)ccc1Nc1ncc2c(n1)N(C)c1ccccc1C(=O)N2C | 7.5 | 100 | 99 | 74 | 67 | 92 | 95 | 100 | 77 | 100 | 83 | 100 | 79 | 100 | 98 | 98 | 89 | 100 | 99 | 100 | kinase still bound, per cent of control [21]: 52%; kinase still bound, per cent of control [22]: 40%; kinase still bound, per cent of control [23]: 83%; kinase still bound, per cent of control [24]: 77%; kinase still bound, per cent of control [25]: 96%; kinase still bound, per cent of control [26]: 99%; kinase still bound, per cent of control [27]: 100%; kinase still bound, per cent of control [28]: 100%; kinase still bound, per cent of control [29]: 68%; kinase still bound, per cent of control [30]: 100%; kinase still bound, per cent of control [31]: 100%; kinase still bound, per cent of control [32]: 88%; kinase still bound, per cent of control [33]: 87%; kinase still bound, per cent of control [34]: 74%; kinase still bound, per cent of control [35]: 100%; kinase still bound, per cent of control [36]: 100%; kinase still bound, per cent of control [37]: 100%; kinase still bound, per cent of control [38]: 58%; kinase still bound, per cent of control [39]: 100%; kinase still bound, per cent of control [40]: 100%
